Measurements from US20240327429A1, “[1,3]Thiazolo[4,5-d]-pyrimidon-7-ones as inhibitors of NOX4” (Boehringer Ingelheim International GmbH, priority 2023, published 2024).

Key:
human NOX5 (hNOX5) = target: T1, human NOX5 (hNOX5) (Homo sapiens, UniProt Q96PH1); assay: NOX5 inhibition assay (L-012), HEK293 cells stably overexpressing human NOX5; format: cell-based; settings: HEK293-hNOX5, PMA stimulated
T1 construct: expressed in transfected cells; host or cells: HEK293
T1 sequence (Q96PH1 1-765): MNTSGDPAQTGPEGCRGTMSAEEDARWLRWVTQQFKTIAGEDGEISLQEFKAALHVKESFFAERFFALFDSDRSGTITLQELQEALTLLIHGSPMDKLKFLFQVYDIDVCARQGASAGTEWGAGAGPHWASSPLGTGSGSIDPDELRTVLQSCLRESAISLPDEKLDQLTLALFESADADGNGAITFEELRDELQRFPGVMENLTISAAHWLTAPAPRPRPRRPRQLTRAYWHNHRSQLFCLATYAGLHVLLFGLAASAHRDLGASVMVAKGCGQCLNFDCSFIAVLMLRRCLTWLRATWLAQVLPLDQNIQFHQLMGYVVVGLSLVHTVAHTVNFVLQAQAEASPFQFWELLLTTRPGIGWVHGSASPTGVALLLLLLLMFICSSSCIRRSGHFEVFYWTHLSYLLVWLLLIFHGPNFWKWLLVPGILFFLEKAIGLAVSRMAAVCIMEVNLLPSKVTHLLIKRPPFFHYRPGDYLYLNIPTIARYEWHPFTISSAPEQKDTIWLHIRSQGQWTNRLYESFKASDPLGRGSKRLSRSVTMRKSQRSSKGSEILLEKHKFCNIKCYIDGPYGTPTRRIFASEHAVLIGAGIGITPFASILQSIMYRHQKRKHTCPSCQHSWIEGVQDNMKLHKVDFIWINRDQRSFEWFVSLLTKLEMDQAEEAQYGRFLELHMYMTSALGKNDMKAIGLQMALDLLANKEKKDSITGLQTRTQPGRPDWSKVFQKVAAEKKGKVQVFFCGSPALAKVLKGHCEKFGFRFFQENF
Protocol: The synthetic gene hNOX5 (Accession: Q96PH1) is cloned into pcDNA3.1_Zeo. […] The final construct is verified by sequencing.
Evaluation of the NOX4 inhibitors on NOX5 activity is assessed in HEK293 cells stably overexpressing human NOX5 (hNOX5).
Cells are seeded in 384 well plates over-night. […] Cells are then stimulated with PMA at 0.1 μM to induce NOX5-dependent ROS production. […] Luminescence is measured with an PHERAstar multimode reader.

human hepatocytes = assay: Evaluation of hepatocyte clearance (metabolic stability); format: in vitro ADME; settings: 1 μM test compound, 5% human serum, Table 3
Protocol: The metabolic degradation of the test compound is assayed in a hepatocyte suspension. Hepatocytes (cryopreserved) are incubated in Dulbecco's modified eagle medium (supplemented with […] glucagon/500 mL, 2.5 mg insulin/500 mL and 3.75 mg/500 mL hydrocortisone) containing 5% human serum.
Following a 30 min preincubation in an incubator (37° C., 10% CO2) 5 μl of test compound solution (80 μM; from 2 mM in DMSO stock solution diluted 1:25 with medium) are added into 395 μl hepatocyte suspension (cell density in the range 0.25-5 Mio cells/mL, typically 1 Mio cells/mL; final concentration of test compound 1 μM, final DMSO concentration 0.05%).
The cells are incubated for six hours (incubator, orbital shaker) and samples (25 μl) are taken at 0, 0.5, 1, 2, 4 and 6 hours. Samples are transferred into acetonitrile and pelleted by centrifugation (5 min). The supernatant is transferred to a new 96-deepwell plate, evaporated under nitrogen and resuspended.
Decline of Parent Compound is Analyzed by HPLC-MS/MS.
CLint is Calculated as Follows:
CL_[…]=Dose/AUC=(C0/CD)/(AUD+clast/k)×1000/60. • C0: initial concentration in the incubation [μM], CD: cell density of vital cells [10^6 cells/mL], AUD: area under the data [μM×h], clast: concentration of last data point [μM], • k: slope of the regression line for parent decline [h-1].
The calculated in vitro hepatic intrinsic clearance can be scaled up to the intrinsic in vivo hepatic clearance and used to predict hepatic in vivo blood clearance (CL) by the use of a liver model (well stirred model).
CL_[…]_INVIVO[ml/min/kg]=(CL_[…][μL/min/10^6 cells]×hepatocellularity[10^6 cells/g liver]×liver factor[g/kg bodyweight])/1000
CL[ml/min/kg]=CL_[…]_INVIVO[ml/min/kg]×hepatic blood flow[ml/min/kg]/(CL_[…]_INVIVO[ml/min/kg]+hepatic blood flow[ml/min/kg])

NOX2 = target: T2, NOX2 (Homo sapiens, UniProt P04839); assay: NOX2 inhibition assay (L-012), human blood-derived granulocytes; format: cell-based; settings: fMLP/PMA stimulated
T2 construct: endogenous in cells; host or cells: freshly isolated human blood-derived granulocytes
T2 sequence (P04839 2-570 limits assumed): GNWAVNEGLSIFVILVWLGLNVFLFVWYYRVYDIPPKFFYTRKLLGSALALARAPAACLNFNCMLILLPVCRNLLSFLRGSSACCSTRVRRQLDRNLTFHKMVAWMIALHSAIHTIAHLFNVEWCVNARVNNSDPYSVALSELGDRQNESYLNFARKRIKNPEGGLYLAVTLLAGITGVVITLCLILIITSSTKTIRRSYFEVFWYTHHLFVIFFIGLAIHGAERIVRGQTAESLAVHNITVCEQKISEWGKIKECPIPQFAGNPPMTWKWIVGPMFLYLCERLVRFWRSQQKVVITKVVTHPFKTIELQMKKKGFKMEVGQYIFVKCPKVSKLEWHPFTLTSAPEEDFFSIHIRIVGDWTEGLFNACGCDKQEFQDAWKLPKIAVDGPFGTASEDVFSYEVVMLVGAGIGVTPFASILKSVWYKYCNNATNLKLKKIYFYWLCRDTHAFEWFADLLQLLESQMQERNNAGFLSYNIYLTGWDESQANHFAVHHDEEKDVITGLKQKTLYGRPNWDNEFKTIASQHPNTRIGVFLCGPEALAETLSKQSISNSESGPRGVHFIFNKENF
T2 sequence (P13498 2-195 partner limits assumed): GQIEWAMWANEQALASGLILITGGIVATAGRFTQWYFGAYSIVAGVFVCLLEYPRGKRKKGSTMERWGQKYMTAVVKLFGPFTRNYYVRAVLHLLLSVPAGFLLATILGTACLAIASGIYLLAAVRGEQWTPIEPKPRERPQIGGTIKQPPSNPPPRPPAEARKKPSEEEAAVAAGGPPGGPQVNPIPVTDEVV
Protocol: Evaluation of the NOX4 inhibitors on NOX2 activity is assessed in human blood-derived granulocytes.
Afterwards, freshly isolated granulocytes are added to the wells containing the compounds in assay buffer and incubated for 1 h at 37° C. Next, a solution of Nformylmethionine-leucyl-phenylalanine (fMLP; 730 nM), phorbol myristate acetate (PMA, 100 nM) (stimuli of ROS production) and L-012 (200 μM, ROS indicator) is added to the wells and the cells are incubated for additional 30 mins at 37° C. Afterwards luminescence is measured in a SpectraMax M5 microplate reader.

| SMILES | IC50 (human NOX5 (hNOX5)) | Qh [%] (human hepatocytes) | IC50 (NOX2) |
| --- | --- | --- | --- |
| O=c1c2scnc2nc(SCc2ccc(F)cc2)n1-c1ccc(O)nc1 [Example 30] | 94.8 µM | 22% | > 30 µM |
| O=c1c2scnc2nc(SCc2c(F)cc(F)cc2F)n1-c1cnc(O)c(F)c1 [Example 31, 6-(5-Fluoro-6-hydroxypyridin-3-yl)-5-((2,4,6-trifluorobenzyl)thio)thiazolo[4,5-d]-pyrimidin-7(6H)-one] | > 100 µM | 14% | 10.5 µM |
| O=c1c2scnc2nc(SCc2ccc(Cl)cc2)n1-c1cnc(O)c(F)c1 [Example 33] | > 100 µM | 15% | > 100 µM |
| Cc1cc(F)ccc1CSc1nc2ncsc2c(=O)n1-c1cnc(O)c(F)c1 [Example 36] | > 100 µM | 34% | > 100 µM |
| O=c1c2scnc2nc(SCc2ccc(F)cc2F)n1-c1cnc(O)c(F)c1 [Example 38] | > 100 µM | 11% | > 100 µM |
| Cc1cc(F)cc(C)c1CSc1nc2ncsc2c(=O)n1-c1cnc(O)c(F)c1 [Example 43] | > 100 µM | 37% | > 100 µM |
| O=c1c2scnc2nc(SCc2ccc(F)cc2Br)n1-c1cnc(O)c(F)c1 [Example 44] | 68.1 µM | 29% | > 100 µM |
| O=c1c2scnc2nc(SCc2c(F)ccc(F)c2F)n1-c1cnc(O)c(F)c1 [Example 45] | 79 µM | 23% | > 100 µM |
| N#Cc1cc(-n2c(SCc3c(F)cc(F)cc3F)nc3ncsc3c2=O)cnc1O [Example 47, 2-Hydroxy-5-(7-oxo-5-((2,4,6-trifluorobenzyl)thio)thiazolo[4,5-d]pyrimidin-6(7H)-yl)-nicotinonitrile] | > 100 µM | 15% | > 30 µM |
| O=c1c2scnc2nc(SCc2c(F)cc(F)cc2F)n1-c1cnc(O)c(Cl)c1 [Example 48, 6-(5-Chloro-6-hydroxypyridin-3-yl)-5-((2,4,6-trifluorobenzyl)thio)thiazolo[4,5-d]pyri-midin-7(6H)-one] | > 100 µM | 22% | > 100 µM |
| O=c1c2scnc2nc(SCc2c(F)cc(F)cc2F)n1-c1cnc(O)cc1F [Example 49, 6-(4-Fluoro-6-hydroxypyridin-3-yl)-5-((2,4,6-trifluorobenzyl)thio)thiazolo[4,5-d]pyrimidin-7(6H)-one] | > 100 µM | 25% | > 100 µM |

These reach a lower IC50 (human NOX5 (hNOX5)). Values come first.

| IC50 (human NOX5 (hNOX5)) | Qh [%] (human hepatocytes) | IC50 (NOX2) | SMILES |
| --- | --- | --- | --- |
| 65.5 µM | 15% | > 100 µM | O=c1c2scnc2nc(SCc2ccc(Cl)cc2F)n1-c1cnc(O)c(F)c1 [Example 35] |
| 64.5 µM | 16% | > 100 µM | Cc1cc(Cl)ccc1CSc1nc2ncsc2c(=O)n1-c1cnc(O)c(F)c1 [Example 37] |
| 55.7 µM | 15% | > 100 µM | O=c1c2scnc2nc(SCc2ccc(C(F)(F)F)cc2)n1-c1cnc(O)c(F)c1 [Example 32, 6-(5-Fluoro-6-hydroxypyridin-3-yl)-5-((4-(trifluoromethyl)benzyl)thio)thiazolo[4,5-d]pyrimidin-7(6H)-one] |
| 47.9 µM | 26% | > 100 µM | O=c1c2scnc2nc(SCc2ccc(Cl)cc2Cl)n1-c1cnc(O)c(F)c1 [Example 39] |
| 46.8 µM | 14% | > 100 µM | O=c1c2scnc2nc(SCc2ccc(C(F)(F)F)cc2F)n1-c1cnc(O)c(F)c1 [Example 42] |
| 46.5 µM | 8% | > 100 µM | O=c1c2scnc2nc(SCc2ccc(Br)cc2F)n1-c1cnc(O)c(F)c1 [Example 34] |
| 44.7 µM | 21% | > 100 µM | O=c1c2scnc2nc(SCc2ccc(C(F)(F)F)cc2Cl)n1-c1cnc(O)c(F)c1 [Example 46] |
| 35.8 µM | 26% | 39.3 µM | O=c1c2scnc2nc(SCc2c(F)cc(F)cc2Cl)n1-c1cnc(O)c(F)c1 [Example 41] |
